# Values quoted from earlier work as cited in patent US8628797B2, “Oral extended-release composition” (Andrx Pharmaceuticals, LLC, priority 2003, dated 2014).
# Conditions: 1 part drug in the stated parts of water
row,solubility,Molecule
1,"~1,000 parts of water","CC[C@H]1OC(=O)[C@H](C)[C@@H](O[C@H]2C[C@@](C)(OC)[C@@H](O)[C@H](C)O2)[C@H](C)[C@@H](O[C@@H]2O[C@H](C)C[C@H](N(C)C)[C@H]2O)[C@](C)(OC)C[C@@H](C)C(=O)[C@H](C)[C@@H](O)[C@]1(C)O [Clarithromycin, 6-O-methylerythromycin A]"
2,"more than 10,000 parts of water",CC1Cc2ccccc2N1NC(=O)c1ccc(Cl)c(S(N)(=O)=O)c1 (stereo not shown) [indapamide]

# Conditions: in vivo
row,absorption in the presence of food,Molecule
1,increased,COc1c2occc2cc2ccc(=O)oc12 [8-methoxsalen]

# Same assay, conditions: in words; literature review
row,Molecule,absorption in the presence of food
1,CC(=O)Oc1ccccc1C(=O)O [aspirin],delayed
2,NS(=O)(=O)c1cc2c(cc1C(F)(F)F)NC(Cc1ccccc1)NS2(=O)=O (stereo not shown) [bendroflumethiazide],unaffected
3,C=CCOc1ccc(CC(=O)O)cc1Cl [alclofenac],delayed

# Next, values leading:
row,absorption in the presence of food,Molecule
1,unaffected,spiramycin
2,delayed,CN/C(=N/CCSCc1nc[nH]c1C)NC#N [cimetidine]
3,increased,O=c1oc2ccccc2c(O)c1Cc1c(O)c2ccccc2oc1=O [dicoumarol]
4,increased,O=C1CN(/N=C/c2ccc([N+](=O)[O-])o2)C(=O)N1 [nitrofurantoin]
5,delayed,CC(C(=O)O)c1ccc(N2Cc3ccccc3C2=O)cc1 (stereo not shown) [indoprofen]
6,unaffected,CCC(=O)O[C@H]1[C@H](O[C@@H]2[C@@H](C)[C@H](O[C@H]3C[C@@](C)(OC)[C@@H](O)[C@H](C)O3)[C@@H](C)C(=O)O[C@H](CC)[C@@](C)(O)[C@H](O)[C@@H](C)C(=O)[C@H](C)C[C@@]2(C)O)O[C@H](C)C[C@@H]1N(C)C [erythromycin estolate]
7,delayed,N[C@@H](C(=O)N[C@@H]1C(=O)N2C(C(=O)O)=C(Cl)CS[C@H]12)c1ccccc1 [cefaclor]
